Measurements: ChEMBL document CHEMBL5375988, “AcGlcAs: A Novel P53-Targeting Arsenical with Potent Cellular Uptake and Cancer Cell Selectivity” (J Med Chem, 2023)
pIC50: −log10 of the molar value. Active and inactive are the calls of the source. The calls are words filed in the database; no cut-off is given here.

Tests used:
NB-4 [1] = test: Induction of apoptosis in human NB4 cells assessed as viable cells at 3 uM preincubated for 1 hrs followed by replacement with fresh culture medium and measured after 24 hrs by Annexin V-FITC/7AAD staining based flow cytometry assay (reference value: 94%); assay type: functional; details: read-out: Activity
NB-4 [2] = test: Induction of apoptosis in human NB4 cells assessed as early apoptotic cells at 3 uM preincubated for 1 hrs followed by replacement with fresh culture medium and measured after 24 hrs by Annexin V-FITC/7AAD staining based flow cytometry assay (reference value: 2.15%); assay type: functional
NB-4 [3] = test: Induction of apoptosis in human NB4 cells assessed as early apoptotic cells at 9 uM preincubated for 1 hrs followed by replacement with fresh culture medium and measured after 24 hrs by Annexin V-FITC/7AAD staining based flow cytometry assay (reference value: 2.15%); assay type: functional
NB-4 [4] = test: Induction of apoptosis in human NB4 cells assessed as late apoptotic cells at 9 uM preincubated for 1 hrs followed by replacement with fresh culture medium and measured after 24 hrs by Annexin V-FITC/7AAD staining based flow cytometry assay (reference value: 3.71%); assay type: functional
[5] = target: T1, PML-RARalpha (Homo sapiens) (UniProt P10276+P29590); test: Induction of PML/RARalpha degradation in human NB4 cells assessed as residual protein level at 0.1 uM incubated for 1 hrs followed by replacement with fresh culture medium and measured after 16 hrs by Western blot analysis (reference value: 1); assay type: cell-based
T1 sequence (P10276 whole entry, looked up): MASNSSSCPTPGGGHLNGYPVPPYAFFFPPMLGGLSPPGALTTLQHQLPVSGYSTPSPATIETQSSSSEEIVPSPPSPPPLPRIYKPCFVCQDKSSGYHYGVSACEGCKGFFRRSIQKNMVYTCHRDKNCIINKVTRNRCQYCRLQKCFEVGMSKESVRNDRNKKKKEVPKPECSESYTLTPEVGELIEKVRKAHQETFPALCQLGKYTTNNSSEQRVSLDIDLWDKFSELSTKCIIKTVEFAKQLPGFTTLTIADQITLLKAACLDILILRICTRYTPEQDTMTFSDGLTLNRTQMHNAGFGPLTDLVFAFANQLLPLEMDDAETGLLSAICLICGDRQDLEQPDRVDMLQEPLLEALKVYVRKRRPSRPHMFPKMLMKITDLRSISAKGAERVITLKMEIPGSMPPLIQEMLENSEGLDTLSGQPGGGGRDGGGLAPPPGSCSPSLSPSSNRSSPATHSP
T1 sequence (P29590 whole entry, looked up): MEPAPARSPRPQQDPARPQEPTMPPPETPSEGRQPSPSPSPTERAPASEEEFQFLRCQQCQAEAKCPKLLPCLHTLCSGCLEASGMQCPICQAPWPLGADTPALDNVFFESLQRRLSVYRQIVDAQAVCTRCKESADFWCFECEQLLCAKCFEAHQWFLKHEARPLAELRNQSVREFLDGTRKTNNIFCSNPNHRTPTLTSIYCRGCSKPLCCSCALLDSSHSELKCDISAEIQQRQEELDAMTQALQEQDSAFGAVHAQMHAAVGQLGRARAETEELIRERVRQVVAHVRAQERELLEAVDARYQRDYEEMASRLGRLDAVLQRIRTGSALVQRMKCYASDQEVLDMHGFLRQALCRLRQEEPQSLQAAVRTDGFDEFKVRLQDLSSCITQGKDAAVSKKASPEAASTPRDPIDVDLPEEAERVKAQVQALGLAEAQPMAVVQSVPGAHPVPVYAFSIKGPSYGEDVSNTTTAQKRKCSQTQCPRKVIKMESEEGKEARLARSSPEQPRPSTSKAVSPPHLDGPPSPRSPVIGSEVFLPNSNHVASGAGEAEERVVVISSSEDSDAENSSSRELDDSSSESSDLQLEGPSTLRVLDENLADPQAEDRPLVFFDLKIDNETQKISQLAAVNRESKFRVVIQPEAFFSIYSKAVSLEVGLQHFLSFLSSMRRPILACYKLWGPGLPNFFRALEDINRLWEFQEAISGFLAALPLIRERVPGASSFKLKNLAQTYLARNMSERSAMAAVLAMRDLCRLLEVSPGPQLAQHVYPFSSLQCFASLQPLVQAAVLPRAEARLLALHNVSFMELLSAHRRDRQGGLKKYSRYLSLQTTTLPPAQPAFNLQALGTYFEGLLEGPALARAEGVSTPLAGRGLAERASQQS

[6] = target: T1, PML-RARalpha (Homo sapiens); test: Induction of PML/RARalpha degradation in HEK293T cells at 3 uM incubated for 1 hrs followed by replacement with fresh culture medium and measured after 16 hrs by immunofluorescence analysis; assay type: cell-based
NB-4 [7] = test: Induction of granulocytic differentiation in human NB4 cells assessed as increase in CD11b expression at 9 uM incubated for 1 hrs followed by replacement with fresh culture medium for 48 hrs by flow cytometry analysis (reference value: 1.44%); assay type: functional
NB-4 [8] = test: Induction of granulocytic differentiation in human NB4 cells assessed as CD11b positive cells at 3 uM incubated for 1 hrs followed by replacement with fresh culture medium for 48 hrs by flow cytometry analysis relative to control; assay type: functional
NB-4 [9] = test: Induction of apoptosis in human NB4 cells assessed as viable cells at 27 uM preincubated for 1 hrs followed by replacement with fresh culture medium and measured after 24 hrs by Annexin V-FITC/7AAD staining based flow cytometry assay (reference value: 94%); assay type: functional; details: read-out: Activity
NB-4 [10] = test: Induction of apoptosis in human NB4 cells assessed as late apoptotic cells at 27 uM preincubated for 1 hrs followed by replacement with fresh culture medium and measured after 24 hrs by Annexin V-FITC/7AAD staining based flow cytometry assay (reference value: 3.71%); assay type: functional
[11] = system: Cellular tumor antigen p53 (Homo sapiens), P04637 [V272M]; test: Rescue of p53-V272M mutant transcriptional activity on PUMA promoter in human NCI-H1299 cells at 0.3 to 10 uM pretreated for 10 mins to1 hr followed by replacement with fresh culture media and measured after 24 hrs by firefly/renilla based luciferase reporter assay; assay type: cell-based; details: filed as activator, dose 0.3-10 µM, time 10-60 min
U-937 [12] = test: Upregulation of MDM2 mRNA expression in human U-937 cells overexpressing p53-V272M mutant pretreated for 1 hr followed by culturing in fresh medium for 4 hrs by RT-qPCR analysis; assay type: functional, cell-based
NCI-H1299 [13] = test: Upregulation of PUMA mRNA expression in human NCI-H1299 cells overexpressing p53-V272M mutant at 2 uM pretreated for 1 hr followed by culturing in fresh medium for 8 hrs by RT-qPCR analysis; assay type: functional, cell-based
NCI-H1299 [14] = test: Upregulation of MDM2 mRNA expression in human NCI-H1299 cells overexpressing p53-V272M mutant at 2 uM pretreated for 1 hr followed by culturing in fresh medium for 8 hrs by RT-qPCR analysis; assay type: functional, cell-based
HL-60 = test: Upregulation of PUMA mRNA expression in human HL-60 cells overexpressing p53-V272M mutant at 2 uM pretreated for 1 hr followed by culturing in fresh medium for 8 hrs by RT-qPCR analysis; assay type: functional, cell-based
U-937 [15] = test: Induction of cell cycle arrest in human U-937 cells overexpressing p53-V272M mutant assessed as upregulation of BTG2 gene expression by RT-qPCR analysis; assay type: functional, cell-based
U-937 [16] = test: Induction of extrinsic apoptosis in human U-937 cells overexpressing p53-V272M mutant assessed as upregulation of PERP gene expression by RT-qPCR analysis; assay type: functional, cell-based
U-937 [17] = test: Induction of apoptosis in human U-937 cells harboring p53-V272M mutant assessed as increase in early apoptotic cells at 0.5 to 8 uM pretreated for 1 hr followed by culturing in fresh medium for 24 hrs by Annexin V-FITC/7AAD staining based flow cytometry analysis; assay type: functional, cell-based; details: dose 0.5-8 µM
U-937 [18] = test: Induction of apoptosis in human U-937 cells harboring p53-V272M mutant assessed as increase in late apoptotic cells at 0.5 to 8 uM pretreated for 1 hr followed by culturing in fresh medium for 24 hrs by Annexin V-FITC/7AAD staining based flow cytometry analysis; assay type: functional, cell-based; details: dose 0.5-8 µM
U-937 [19] = test: Cytotoxicity against p53 null human U-937 cells harboring p53 V272M mutant incubated for 48 hrs by CCK-8 assay; assay type: functional, cell-based; details: U-937, 48 h
U-937 [20] = test: Cytotoxicity against p53 null human U-937 cells harboring empty vector incubated for 48 hrs by CCK-8 assay; assay type: functional, cell-based; details: U-937, 48 h
[21] = Drug uptake in HFL1 cells at 10 uM measured after 10 mins by ICP-MS analysis; assay type: ADME, cell-based; details: human, hfl1, 10 min
[22] = Drug uptake in human HPDE6c7 cells at 10 uM measured after 10 mins by ICP-MS analysis; assay type: ADME, cell-based; details: hpde6c7, 10 min
[23] = Drug uptake in human MDA-MB-231 cells at 10 uM measured after 10 mins by ICP-MS analysis; assay type: ADME, cell-based; details: mda-mb-231, 10 min
U-937 [24] = test: Antitumor activity against human U-937 cells harboring p53-V272M mutant xenografted in NSG mouse assessed as delay in tumor progression at 10 mg/kg, iv administered for 9 days by bioluminescence imaging based luciferase analysis; assay type: functional, organism-based; details: time 9.0 day
U-937 [25] = test: Antitumor activity against GFP-tagged human U-937 cells harboring p53 V272M mutant xenografted in M-NSG mouse assessed as decrease in leukemia cell population in bone marrow at 25 mg/kg, ip administered for 9 days starting from 7 days post inoculation and measured on day 2,6,and 9 by FACS analysis; assay type: functional, organism-based; details: time 9.0 day
[26] = Drug uptake in human HepG2 cells assessed as fold increase in arsenic accumulation at 10 uM incubated for 10 mins by ICP-MS analysis; assay type: ADME, cell-based; details: hepg2, 10 min
[27] = Drug uptake in human MDA-MB-231 cells assessed as fold increase in arsenic accumulation at 10 uM incubated for 10 mins by ICP-MS analysis; assay type: ADME, cell-based; details: mda-mb-231, 10 min
[28] = system: Cellular tumor antigen p53 (Homo sapiens), P04637 [V272M]; test: Restoration of p53-V272M mutant transcriptional activity on PUMA promoter in human NCI-H1299 cells at 10 uM pretreated with -auranofin for 10 mins followed by compound addition for 10 mins and further incubation in fresh medium for 24 hrs by firefly/renilla based luciferase reporter assay; assay type: cell-based
[29] = system: Cellular tumor antigen p53 (Homo sapiens), P04637 [V272M]; test: Restoration of p53-V272M mutant transcriptional activity on PUMA promoter in human NCI-H1299 cells harboring siRNA-mediated CLIC1 knockdown incubated for 24 hrs by firefly/renilla based luciferase reporter assay; assay type: cell-based

Q: Which viability at 3 µM (NB-4 [1]) does the source give for `CC(=O)OC[C@H]1O[C@@H](S[As]2SCCS2)[C@H](OC(C)=O)[C@@H](OC(C)=O)[C@@H]1OC(C)=O` here?
A: Its viability at 3 µM is 91.1%.

Q: What about the Activity (NB-4 [2]) of the same molecule?
A: The Activity was 4.21%.

Q: What about the Activity (NB-4 [3]) of the same molecule?
A: Its Activity is 7.43%.

Q: And the Activity (NB-4 [4])?
A: Its Activity is 6.71%.

Q: And the Activity [5]?
A: Its Activity is 0.55.

Q: And the Activity [6]?
A: The Activity was “Active”.

Q: What about the Activity (NB-4 [7]) of the same molecule?
A: The Activity was 19%.

Q: What about the Activity (NB-4 [8]) of the same molecule?
A: Its Activity is 32.9%.

Q: What about the viability at 27 µM (NB-4 [9]) of the same molecule?
A: The viability at 27 µM was 54.1%.

Q: And the Activity (NB-4 [10])?
A: The Activity was 29%.

Q: What about the Activity [11] of the same molecule?
A: Its Activity is “Active”.

Q: And the Activity (U-937 [12])?
A: The Activity was “Active”.

Q: And the Activity (NCI-H1299 [13])?
A: The Activity was “Active”.

Q: What about the Activity (NCI-H1299 [14]) of the same molecule?
A: The Activity was “Active”.

Q: And the Activity (HL-60)?
A: Its Activity is “Active”.

Q: And the Activity (U-937 [15])?
A: The Activity was “Active”.

Q: And the Activity (U-937 [16])?
A: Its Activity is “inactive”.

Q: And the Activity (U-937 [17])?
A: Its Activity is “Active”.

Q: And the Activity (U-937 [18])?
A: The Activity was “Active”.

Q: And the pIC50 (U-937 [19])?
A: Its pIC50 is 6.64.

Q: What about the pIC50 (U-937 [20]) of the same molecule?
A: The pIC50 was 5.68.

Q: What about the Drug uptake [21] of the same molecule?
A: Its Drug uptake is “Active”.

Q: What about the Drug uptake [22] of the same molecule?
A: The Drug uptake was “Active”.

Q: And the Drug uptake [23]?
A: The Drug uptake was “Active”.

Q: What about the Activity (U-937 [24]) of the same molecule?
A: Its Activity is “Active”.

Q: What about the Activity (U-937 [25]) of the same molecule?
A: The Activity was “Active”.

Q: What about the “fold change (FC)” value [26] of the same molecule?
A: Its value is 19.

Q: What about the “fold change (FC)” value [27] of the same molecule?
A: The value was 19.

Q: What about the Activity [28] of the same molecule?
A: The Activity was “inactive”.

Q: And the Activity [29]?
A: Its Activity is “inactive”.
